Blank lines part the entries; values can stand above or below the compound they belong to.
Experiments:
[1] = biological target: HEK-293 cells expressing human recombinant adenosine A2A receptor (Homo sapiens (Human), UniProt P29274); assay: cAMP assay, Assay 2 (Eu-cAMP tracer / ULight-anti-cAMP); format: cell-based; details: Assay 2
Protocol: The functional activity of compounds was tested using one of the two assays to detect the present of cAMP. Activation of G-protein coupled receptors (such as A2A) results in activation of adenylcyclase which converts ATP into cAMP which is used as a downstream signaling molecule. Therefore, molecules which act as GPCR (or specifically A2A receptor) antagonists cause a decrease in intracellular cAMP concentration.
Both assays used HEK-293 cells expressing human recombinant adenosine A2A receptor were grown prior to the test in media without antibiotic.
Assay 2 (Table B2-2): 100 nL of test articles at 100× of final concentration were transferred to assay plate by Echo. Cells were washed twice with 5 mL of PBS […]. After aspirating the PBS and adding 1.5 mL versine, cells were incubated at 37° C. for 2-5 min. After centrifugation, 4 mL of medium was added and adjusted cell density to 5,000 cells/well with Stimulation Buffer. 10 μL of cells were aliquoted to the assay plate, centrifuged at 1000 rpm for 1 minute, and incubated for 60 minutes at room temperature. 5 μL 4×Eu-cAMP tracer solution and 5 μL 4×Ulight™-anti-cAMP solution were added to assay plate, followed by centrifugation and 60-minute incubation at room temperature. Plates were read on EnVision.

[2] = biological target: human adenosine A2A membrane preparation (Homo sapiens (Human), UniProt P29274); assay: Adenosine A2A receptor radioligand binding assay (SPA beads, 3H-SCH 58261, 384 plate); details: for inhibition at 0.01 µM: read-out: A2a binding % inh @ 10 nM; for inhibition at 0.1 µM: read-out: A2a binding % inh @ 100 nM; for inhibition at 1 µM: read-out: A2a binding % inh @ 1000 nM; for inhibition at 0.001 µM: read-out: A2a binding % inh @ 1 nM
Sequence of human adenosine A2A membrane preparation (P29274 whole entry): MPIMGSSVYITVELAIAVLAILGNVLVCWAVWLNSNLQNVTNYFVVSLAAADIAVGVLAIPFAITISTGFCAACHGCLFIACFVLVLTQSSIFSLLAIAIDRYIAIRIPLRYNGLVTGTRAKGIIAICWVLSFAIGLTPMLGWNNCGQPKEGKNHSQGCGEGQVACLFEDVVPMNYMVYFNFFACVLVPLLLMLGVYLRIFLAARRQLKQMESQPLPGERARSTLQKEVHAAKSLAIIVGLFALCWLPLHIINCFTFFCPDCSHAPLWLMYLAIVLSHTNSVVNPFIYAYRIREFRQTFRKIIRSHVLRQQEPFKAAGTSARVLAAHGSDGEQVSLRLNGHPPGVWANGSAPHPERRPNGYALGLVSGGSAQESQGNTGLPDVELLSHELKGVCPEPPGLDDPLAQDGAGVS
Protocol: For the A2A adenosine receptor radioligand binding assay, the following modifications were made to the general protocol. GF/C filters (Perkin Elmer, 6005174), presoaked in 0.01% Brij for 2 h at room temperature were used. Filters were washed six times with 0.5 mL of ice-cold washing buffer (50 mM Tris pH 7.4) and 50 μL of Microscint 20 (Packard) was added in each well. The plates were then incubated for 15 min on an orbital shaker and then counted with a TopCount™ for 1 min/well. Another radioligand binding assay was used to evaluate the binding affinity for the adenosine A2A receptor assay was performed in duplicate in the wells of a 384 plate. Assay buffer contained DPBS 500 mM, MgCl2 0.1 mM, and 1% DMSO. Membrane-bead suspension was prepared by mixing 25.98 μL of human adenosine A2A membrane preparation (Perkin Elmer, RBHA2AM400UA) at 33.4 μg/mL, 28 μL of ADA at 20 μg/mL, and 932 μL of SPA beads at 3.33 mg/mL) and incubated the mixture for 20 min at room temperature. Mixed 20 μL of radiotracer (^3H-SCH 58261) at 15 nM to each well containing test articles at various concentrations and centrifuge the plate at 1000 rpm for 1 minute. Added 30 μL of the membraine-bead suspension to each well. Sealed the plates and incubated for 1 hr at room temperature with vigorous mixing on a plate mixer. Plates were read on Microbeta^2 (Perkin Elmer, 2450-0010).

Sequence of HEK-293 cells expressing human recombinant adenosine A2A receptor (P29274 whole entry): as above

SMILES: Cc1n[nH]c(C)c1-c1nc(N)cnc1-c1ccc2ncccc2c1 [Compound 1.294, 6-(3,5-dimethyl-1H-pyrazol-4-yl)-5-(quinolin-6-yl)pyrazin-2-amine]
IC50 [1]: > 10000 nM

SMILES: CC(=O)Nc1nc(-c2ccccc2)c(-c2ccc3ncccc3c2)nc1C#N [Compound No. 1.284, N-(3-cyano-6-phenyl-5-(quinolin-6-yl)pyrazin-2-yl)acetamide]
inhibition at 0.01 µM [2]: 32% | inhibition at 0.1 µM [2]: 76% | inhibition at 1 µM [2]: 83%

SMILES: Cn1ccc(-c2nc(N)cnc2-c2cc(Cl)c3ncsc3c2)n1 [Compound 1.305, 5-(4-chlorobenzo[d]thiazol-6-yl)-6-(1-methyl-1H-pyrazol-3-yl)pyrazin-2-amine]
IC50 [1]: 96 nM

SMILES: Cc1ccc(-c2nc(N)c(C#N)nc2-c2ccc3ncccc3c2)s1 [Compound No. 1.282, 3-amino-5-(5-methylthiophen-2-yl)-6-(quinolin-6-yl)pyrazine-2-carbonitrile]
inhibition at 0.01 µM [2]: 74% | inhibition at 0.1 µM [2]: 82% | inhibition at 1 µM [2]: 79%

SMILES: Cc1cc(C)n(-c2nc(N)cnc2-c2ccc3ncccc3c2)n1 [Compound No. 1.291, 6-(3,5-dimethyl-1H-pyrazol-1-yl)-5-(quinolin-6-yl)pyrazin-2-amine]
inhibition at 0.001 µM [2]: 0% | inhibition at 0.01 µM [2]: 0% | inhibition at 0.1 µM [2]: 0%

SMILES: Cc1ccc(-c2nc(N)c(C#N)nc2-c2ccc3ncccc3c2)o1 [Compound No. 1.281, 3-amino-5-(5-methylfuran-2-yl)-6-(quinolin-6-yl)pyrazine-2-carbonitrile]
inhibition at 0.01 µM [2]: 78% | inhibition at 0.1 µM [2]: 88% | inhibition at 1 µM [2]: 80%

SMILES: Nc1cnc(-c2ccc3ncccc3c2)c(N2CCCC2)n1 [Compound 1.298, 6-(pyrrolidin-1-yl)-5-(quinolin-6-yl)pyrazin-2-amine]
IC50 [1]: > 10000 nM

SMILES: Nc1cnc(-c2ccc3ncccc3c2)c(-c2cc[nH]n2)n1 [Compound No. 1.293, 6-(1H-pyrazol-3-yl)-5-(quinolin-6-yl)pyrazin-2-amine]
inhibition at 0.001 µM [2]: 28% | inhibition at 0.01 µM [2]: 32% | inhibition at 0.1 µM [2]: 31%

SMILES: N#Cc1nc(-c2ccc3ncncc3c2)c(-c2ccccc2)nc1N [Compound No. 1.283, 3-amino-5-phenyl-6-(quinazolin-6-yl)pyrazine-2-carbonitrile]
inhibition at 0.01 µM [2]: 63% | inhibition at 0.1 µM [2]: 83% | inhibition at 1 µM [2]: 95%

SMILES: Cn1ccc(-c2nc(N)cnc2-c2ccc3[nH]ncc3c2)n1 [Compound 1.299, 5-(1H-indazol-5-yl)-6-(1-methyl-1H-pyrazol-3-yl)pyrazin-2-amine]
IC50 [1]: 1250 nM

SMILES: Cn1ccc(-c2nc(N)cnc2-c2ccc3[nH]c(=O)ccc3c2)n1 [Compound 1.353, 6-(5-amino-3-(1-methyl-1H-pyrazol-3-yl)pyrazin-2-yl)quinolin-2(1H)-one]
IC50 [1]: > 10000 nM

SMILES: Nc1cnc(-c2ccc3ncccc3c2)c(N2CCCC2=O)n1 [Compound 1.301, 1-(6-amino-3-(quinolin-6-yl)pyrazin-2-yl)pyrrolidin-2-one]
IC50 [1]: > 10000 nM

SMILES: Nc1cnc(-c2cc(Cl)c3[nH]ncc3c2)c(-c2ccccc2)n1 [Compound No. 1.289]
inhibition at 0.001 µM [2]: 41% | inhibition at 0.01 µM [2]: 75% | inhibition at 0.1 µM [2]: 87% | inhibition at 1 µM [2]: 95%

SMILES: Nc1cnc(-c2ccc3c(=O)[nH]ccc3c2)c(-c2ccccc2)n1 [Compound 1.327, 6-(5-amino-3-phenylpyrazin-2-yl)isoquinolin-1(2H)-one]
IC50 [1]: 173 nM

Second part, the compound after the results:

IC50 [1]: > 10000 nM
SMILES: Cn1cccc(-c2nc(N)cnc2-c2cc(Cl)c3ncccc3c2)c1=O [Compound 1.329, 3-(6-amino-3-(8-chloroquinolin-6-yl)pyrazin-2-yl)-1-methylpyridin-2(1H)-one]

IC50 [1]: 40.1 nM
SMILES: Cc1ccn(-c2nc(N)c(Br)nc2-c2cc(Cl)c3ncccc3c2)n1 [Compound 1.316, 3-bromo-5-(8-chloroquinolin-6-yl)-6-(3-methyl-1H-pyrazol-1-yl)pyrazin-2-amine]

IC50 [1]: 279 nM
SMILES: Cn1ccc(-c2nc(N)c(C(N)=O)nc2-c2cc(Cl)c3ncccc3c2)n1 [Compound 1.311, 3-amino-6-(8-chloroquinolin-6-yl)-5-(1-methyl-1H-pyrazol-3-yl)pyrazine-2-carboxamide]

IC50 [1]: 573 nM
SMILES: Cc1cnn(-c2nc(N)cnc2-c2cc(Cl)c3ncccc3c2)c1 [Compound 1.303, 5-(8-chloroquinolin-6-yl)-6-(4-methyl-1H-pyrazol-1-yl)pyrazin-2-amine]

IC50 ([2]; Table B1-2): 2.4 nM | inhibition at 0.001 µM [2]: 50% | inhibition at 0.01 µM [2]: 93% | inhibition at 0.1 µM [2]: 95%
SMILES: Cc1ccn(-c2nc(N)c(C#N)nc2-c2cc(Cl)c3ncccc3c2)n1 [Compound No. 1.292, 3-amino-6-(8-chloroquinolin-6-yl)-5-(3-methyl-1H-pyrazol-1-yl)pyrazine-2-carbonitrile]

IC50 [1]: 1930 nM
SMILES: CCn1ccc(-c2nc(N)cnc2-c2cc(Cl)c3ncccc3c2)n1 [Compound 1.319, 5-(8-chloroquinolin-6-yl)-6-(1-ethyl-1H-pyrazol-3-yl)pyrazin-2-amine]

IC50 [1]: 1540 nM
SMILES: Cn1ccc(-c2nc(N)cnc2-c2cc(F)c3ncccc3c2)n1 [Compound 1.314, 5-(8-fluoroquinolin-6-yl)-6-(1-methyl-1H-pyrazol-3-yl)pyrazin-2-amine]

IC50 [1]: 251 nM
SMILES: COc1nc(-c2cc(Cl)c3ncccc3c2)c(-c2ccn(C)n2)nc1N [Compound 1.312, 5-(8-chloroquinolin-6-yl)-3-methoxy-6-(1-methyl-1H-pyrazol-3-yl)pyrazin-2-amine]

IC50 [1]: 563 nM
SMILES: Cc1cnc(-c2nc(N)cnc2-c2cc(Cl)c3ncccc3c2)s1 [Compound 1.395, 5-(8-chloroquinolin-6-yl)-6-(5-methylthiazol-2-yl)pyrazin-2-amine]

IC50 [1]: 120 nM
SMILES: Cc1ccn(-c2nc(N)cnc2-c2cc(C)c3[nH]ncc3c2)n1 [Compound 1.300, 5-(7-methyl-1H-indazol-5-yl)-6-(3-methyl-1H-pyrazol-1-yl)pyrazin-2-amine]

IC50 [1]: 279 nM
SMILES: Cc1ccn(-c2nc(N)c(C(N)=O)nc2-c2cc(Cl)c3ncccc3c2)n1 [Compound 1.317, 3-amino-6-(8-chloroquinolin-6-yl)-5-(3-methyl-1H-pyrazol-1-yl)pyrazine-2-carboxamide]

IC50 [1]: 8480 nM
SMILES: Nc1cnc(-c2cc(Cl)c3ncccc3c2)c(-c2ccn(C3CC3)n2)n1 [Compound 1.307, 5-(8-chloroquinolin-6-yl)-6-(1-cyclopropyl-1H-pyrazol-3-yl)pyrazin-2-amine]

IC50 [1]: 12.5 nM
SMILES: Cn1ccc(-c2nc(N)c(Br)nc2-c2cc(Cl)c3ncccc3c2)n1 [Compound 1.324, 3-bromo-5-(8-chloroquinolin-6-yl)-6-(1-methyl-1H-pyrazol-3-yl)pyrazin-2-amine]

IC50 [1]: 130 nM
SMILES: Cc1ccn(-c2nc(N)cnc2-c2cc(C)c3ncccc3c2)n1 [Compound 1.296, 6-(3-methyl-1H-pyrazol-1-yl)-5-(8-methylquinolin-6-yl)pyrazin-2-amine]

IC50 [1]: 120 nM
SMILES: Nc1cnc(-c2cc(Cl)c3ncccc3c2)c(-n2ccc(C(F)(F)F)n2)n1 [Compound 1.306, 5-(8-chloroquinolin-6-yl)-6-(3-(trifluoromethyl)-1H-pyrazol-1-yl)pyrazin-2-amine]

IC50 [1]: 1550 nM
SMILES: Cc1ccn(-c2nc(N)c(O)nc2-c2cc(Cl)c3ncccc3c2)n1 [Compound 1.313, 3-amino-6-(8-chloroquinolin-6-yl)-5-(3-methyl-1H-pyrazol-1-yl)pyrazin-2-ol]
